# Reference: patent US20230121313A1 (priority 2019, published 2023)
# Tested on: patients with treatment-resistant depression (TRD)
# Experiment: MADRS total score, phase 2 doubly-randomized dose-response study in TRD (NCT01998958)
# Format: in vivo, human
# Conditions: for MADRS total score, Mean difference placebo: Period 1 and Period 2 Combined; for MADRS total score: LS mean difference vs placebo, range over esketamine dose groups / Proportion of responders (≥50% improvement in MADRS total score) / Remission (MADRS total score ≤10) / MADRS total score: treatment difference relative to placebo: phase 2; for MADRS total score: LS mean difference vs placebo, range over esketamine dose groups: 28, 56, 84 mg; for Proportion of responders (≥50% improvement in MADRS total score): Period 2 endpoint; for Remission (MADRS total score ≤10): after 2 weeks; for MADRS total score: treatment difference relative to placebo: day 15
# Source text: In Panel A, reported here, 14 study sites (13 in US, 1 in Belgium) enrolled participants into the study. The study consisted of four phases: 1) screening, 2) double-blind treatment (days 1 to 15), comprised of two 1-week periods (Period 1, Period 2), 3) optional open-label treatment (days 15 to 74) with tapering of intranasal dosing frequency, and 4) post-treatment follow-up (8 weeks). Based on prior studies of ketamine where efficacy was reported after 1-2 doses, the duration of each period in the double-blind phase was 1 week, during which time it was expected that efficacy could be achieved. This design allowed evaluation of the dose(s) needed to proceed to evaluation in phase 3. The purpose of the open-label flexible-dose phase was to evaluate the impact of less frequent dosing on sustaining efficacy.
# At the beginning of double-blind Period 1, eligible participants were randomized (3:1:1:1) to intranasal placebo or esketamine 28, 56, or 84 mg, twice weekly (days 1 and 4) based on the first of two computer-generated randomization schedules (Period 1 and Period 2). Randomization was balanced by using randomly permuted blocks and stratified by study center. At the end of Period 1, those randomized to placebo who had moderate-to-severe symptoms (assessed by Quick Inventory of Depressive Symptomatology-Self Report (Trivedi 2016 and Rush, “The 16-item Quick Inventory of Depressive Symptomatology (QIDS) Clinician Rating (QIDS-C) and Self-Report (QIDS-SR): A psychometric evaluation in patients with chronic major depression”, Biol. Psychiatry, 2003, 54(5):573-583) [QIDS-SR16] total score: moderate, 11-16; severe, >16) were re-randomized (1:1:1:1) to intranasal esketamine 28, 56, or 84 mg or placebo, twice weekly (days 8 and 11), while those having mild or no symptoms continued on placebo. To maintain the blind, all participants completed an identical process prior to entry into Period 2, whether or not they were re-randomized. Regardless of response in the double-blind phase, all participants were eligible to enter the optional open-label phase. Esketamine (56 mg) was administered on the first day of the open-label phase (study day 15); subsequent doses could be adjusted (range: 28 to 84 mg) based on investigator's clinical judgment, with administration twice weekly for first 2 weeks, weekly for next 3 weeks, then every 2 weeks thereafter.
# Efficacy was assessed with the Montgomery-Asberg Depression Rating Scale (MADRS; Montgomery, “A new depression scale designed to be sensitive to change”, Br. J. Psychiatry, 1979, 134:382-389; Williams, “Development and reliability of a structured interview guide for the Montgomery Asberg Depression Rating Scale (SIGMA)”, Br. J. Psychiatry, 2008, 192(1):52-58) on days 1 (pre-dose and 2 hour post-dose), 2, 8 (pre-dose), 9, and 15, using the structured interview guide (SIGMA). See, Williams 2008.
# Efficacy data were analyzed in intent-to-treat (ITT) analysis sets for each period and phase. The ITT analysis sets included all participants who received at least 1 dose of study medication during that period or phase and had baseline and at least one post-baseline MADRS total score within that period or phase.
# The primary efficacy endpoint—change from baseline (pre-dose, day 1 in each period) to endpoint (day 8 in each period) in MADRS total score—was analyzed using the analysis of covariance (ANCOVA) model. For Period 1, the model included treatment and country as factors, and baseline MADRS total score as covariate. For Period 2, the model included treatment and country as factors, Period 2 baseline QIDS-SR16 score (moderate or severe), and Period 2 baseline MADRS total score as a continuous covariate.
# Given the consistency between Periods 1 and 2 results (Chi 2016), esketamine dose groups were compared to placebo using a combined test on the weighted test statistics for each period in the double-blind treatment phase. […]
# [1] = OL endpoint-day 74, Esketamine/Esketamine/OL Esketamine
# [2] = OL endpoint-day 74, Placebo/Esketamine/OL Esketamine
# [3] = OL endpoint-day 74, Placebo/Placebo/OL Esketamine
# [4] = Period 1, 2 hours, esketamine 28 mg
# [5] = Period 1, 2 hours, esketamine 56 mg
# [6] = Period 1, 2 hours, esketamine 84 mg
# [7] = Period 1, 24 hours, esketamine 28 mg
# [8] = Period 1, 24 hours, esketamine 56 mg
# [9] = Period 1, 24 hours, esketamine 84 mg
# [10] = Period 1, study period endpoint (day 8), esketamine 28 mg
# [11] = Period 1, study period endpoint (day 8), esketamine 56 mg
# [12] = Period 1, study period endpoint (day 8), esketamine 84 mg
# [13] = Period 2 (placebo nonresponsive participants re-randomized), 2 hours, esketamine 28 mg
# [14] = Period 2 (placebo nonresponsive participants re-randomized), 2 hours, esketamine 56 mg
# [15] = Period 2 (placebo nonresponsive participants re-randomized), 2 hours, esketamine 84 mg
# [16] = Period 2 (placebo nonresponsive participants re-randomized), 24 hours, esketamine 28 mg
# [17] = Period 2 (placebo nonresponsive participants re-randomized), 24 hours, esketamine 56 mg
# [18] = Period 2 (placebo nonresponsive participants re-randomized), 24 hours, esketamine 84 mg
# [19] = Period 2 (placebo nonresponsive participants re-randomized), study period endpoint (day 15), esketamine 28 mg
# [20] = Period 2 (placebo nonresponsive participants re-randomized), study period endpoint (day 15), esketamine 56 mg
# [21] = Period 2 (placebo nonresponsive participants re-randomized), study period endpoint (day 15), esketamine 84 mg
# [22] = Week 8 (Follow-up), Esketamine/Esketamine/OL Esketamine
# [23] = Week 8 (Follow-up), Placebo/Esketamine/OL Esketamine
# [24] = Week 8 (Follow-up), Placebo/Placebo/OL Esketamine
smiles,measurement,setting,value
"CN[C@]1(c2ccccc2Cl)CCCCC1=O [esketamine, (S)-2-(2-chlorophenyl)-2-(methylamino)cyclohexanone]","Remission Rate, No, %",[1],72.2%
same,"Remission Rate, Yes, %",[1],27.8%
same,"Response Rate, ≥50% improvement, %",[1],61.1%
same,"Remission Rate, No, %",[2],60.0%
same,"Remission Rate, Yes, %",[2],40.0%
same,"Response Rate, ≥50% improvement, %",[2],50.0%
same,"Remission Rate, No, %",[3],66.7%
same,"Remission Rate, Yes, %",[3],33.3%
same,"Response Rate, ≥50% improvement, %",[3],100%
same,"Remission Rate, No, %","OL endpoint-day 74, Total",67.6%
same,"Remission Rate, Yes, %","OL endpoint-day 74, Total",32.4%
same,"Response Rate, ≥50% improvement, %","OL endpoint-day 74, Total",64.7%
same,"MADRS total score, LS mean change",[4],−16.4
same,"MADRS total score, LS mean difference placebo",[4],−6.7
same,"Remitters, %",[4],(27.3) %
same,"Responders, %",[4],(54.5) %
same,"MADRS total score, LS mean change",[5],−14.3
same,"MADRS total score, LS mean difference placebo",[5],−4.6
same,"Remitters, %",[5],(18.2) %
same,"Responders, %",[5],(36.4) %
same,"MADRS total score, LS mean change",[6],−17.6
same,"MADRS total score, LS mean difference placebo",[6],−7.9
same,"Remitters, %",[6],(25.0) %
same,"Responders, %",[6],(58.3) %
same,"MADRS total score, LS mean change",[7],−14.8
same,"MADRS total score, LS mean difference placebo",[7],−9.1
same,"Remitters, %",[7],(36.4) %
same,"Responders, %",[7],(36.4) %
same,"MADRS total score, LS mean change",[8],−15.7
same,"MADRS total score, LS mean difference placebo",[8],−10.0
same,"Remitters, %",[8],(18.2) %
same,"Responders, %",[8],(27.3) %
same,"MADRS total score, LS mean change",[9],−16.4
same,"MADRS total score, LS mean difference placebo",[9],−10.7
same,"Remitters, %",[9],(25.0) %
same,"Responders, %",[9],(41.7) %
same,"MADRS total score, LS mean change",[10],−9.8
same,"MADRS total score, LS mean difference placebo",[10],−5.0
same,"Remitters, %",[10],(9.1) %
same,"Responders, %",[10],(9.1) %
same,"MADRS total score, LS mean change",[11],−12.4
same,"MADRS total score, LS mean difference placebo",[11],−7.6
same,"Remitters, %",[11],(9.1) %
same,"Responders, %",[11],(18.2) %
same,"MADRS total score, LS mean change",[12],−15.3
same,"MADRS total score, LS mean difference placebo",[12],−10.5
same,"Remitters, %",[12],(25.0) %
same,"Responders, %",[12],(41.7) %
same,"MADRS total score, Mean difference placebo",esketamine 28 mg,−4.2
same,"MADRS total score, Mean difference placebo",esketamine 56 mg,−6.3
same,"MADRS total score, Mean difference placebo",esketamine 84 mg,−9.0
same,"MADRS total score, LS mean change",[13],−10.3
same,"MADRS total score, LS mean difference placebo",[13],−3.5
same,"Remitters, %",[13],(12.5) %
same,"Responders, %",[13],(12.5) %
same,"MADRS total score, LS mean change",[14],−11.7
same,"MADRS total score, LS mean difference placebo",[14],−4.9
same,"Responders, %",[14],(22.2) %
same,"MADRS total score, LS mean change",[15],−11.6
same,"MADRS total score, LS mean difference placebo",[15],−4.9
same,"Remitters, %",[15],(40.0) %
same,"Responders, %",[15],(40.0) %
same,"MADRS total score, LS mean change",[16],−8.9
same,"MADRS total score, LS mean difference placebo",[16],−4.8
same,"MADRS total score, LS mean change",[17],−10.2
same,"MADRS total score, LS mean difference placebo",[17],−6.1
same,"Responders, %",[17],(11.1) %
same,"MADRS total score, LS mean change",[18],−11.6
same,"MADRS total score, LS mean difference placebo",[18],−7.5
same,"Remitters, %",[18],(20.0) %
same,"Responders, %",[18],(40.0) %
same,"MADRS total score, LS mean change",[19],−7.6
same,"MADRS total score, LS mean difference placebo",[19],−3.1
same,"Remitters, %",[19],(12.5) %
same,"Responders, %",[19],(12.5) %
same,"MADRS total score, LS mean change",[20],−8.9
same,"MADRS total score, LS mean difference placebo",[20],−4.4
same,"MADRS total score, LS mean change",[21],−11.4
same,"MADRS total score, LS mean difference placebo",[21],−6.9
same,"Remitters, %",[21],(20.0) %
same,"Responders, %",[21],(20.0) %
same,"Remission Rate, No, %",[22],54.5%
same,"Remission Rate, Yes, %",[22],45.5%
same,"Response Rate, ≥50% improvement, %",[22],68.2%
same,"Remission Rate, No, %",[23],75.0%
same,"Remission Rate, Yes, %",[23],25.0%
same,"Response Rate, ≥50% improvement, %",[23],25.0%
same,"Remission Rate, No, %",[24],42.9%
same,"Remission Rate, Yes, %",[24],57.1%
same,"Response Rate, ≥50% improvement, %",[24],71.4%
same,"Remission Rate, No, %","Week 8 (Follow-up), Total",58.5%
same,"Remission Rate, Yes, %","Week 8 (Follow-up), Total",41.5%
same,"Response Rate, ≥50% improvement, %","Week 8 (Follow-up), Total",56.1%
same,"MADRS total score: LS mean difference vs placebo, range over esketamine dose groups",Period 1 (baseline to day 8),−5.0 to −10.5
same,"MADRS total score: LS mean difference vs placebo, range over esketamine dose groups",Period 2 (day 8 to day 15),−3.1 to −6.9
same,Proportion of responders (≥50% improvement in MADRS total score),28 mg,37.5%
same,Proportion of responders (≥50% improvement in MADRS total score),56 mg,36.4%
same,Proportion of responders (≥50% improvement in MADRS total score),84 mg,50.0%
same,Remission (MADRS total score ≤10),28 mg,12.5%
same,Remission (MADRS total score ≤10),56 mg,27.3%
same,Remission (MADRS total score ≤10),84 mg,40.0%
same,MADRS total score: treatment difference relative to placebo,"completers with same treatment 2 weeks, 84 mg",−12.5
same,MADRS total score: treatment difference relative to placebo,"completers, 28 mg",−6.0
same,MADRS total score: treatment difference relative to placebo,"completers, 56 mg",−8.3
